{"source": "patent US7365231B2", "about": "“Compound with antitumor activity and preparation method therefor” (National Taiwan University of Science & Technology, priority 2005, dated 2008)", "assay_in_all_cases": "NCI panel growth inhibition, sulforhodamine B", "key": {"786-0": {"test_system": "786-0", "assay_type": "cell-based", "settings": "Homo sapiens; 786-0, Renal cancer; drug for last 48 h of 72 h", "source_text": "(§1) Comparison of anticancer activities of the 1,3-substituted adamantane derivatives, 1,3-bis(4-aminophenyl)adamantane (1,3-DPANH2), 1,3-bis(4-(4-aminophenoxy)phenyl)adamantane (1,3-DPAONH2), 1,3-bis(4-(4-amino-3-hydroxy)phenyl)adamantane (1,3-DPA/OH/NH2) and 1,3-bis(4-(4-amino-2-trifluoromethylphenoxy)phenyl)adamantane (1,3-DPA/CF3/NH2) as shown in FIG. 1 were synthesized in the present invention. Those compounds were submitted to the National Cancer Institute for anticancer assay in culture against a standard panel of cell lines. […] To further confirm that the different substituents (CF3 and OH) on the phenyl ring of 1,3-DPAONH2 affect the growth inhibition of cancer cells. […] The transformations of 1,3-DPAONH2 to 1,3-DPA/OH/NH2 led to a remarked enhancement of anticancer activity toward all the tested cancer lines. The role of the OH group at the ortho position of the NH2 on growth inhibition is remarkable. In addition, one compound (1,3-DPA/OH/NH2) was confirmed to have an IC50 of <1 μM against one of the cells (BT-549 breast carcinoma). Comparison of anticancer activities of 1,3-substituted diaminophenyladamantane derivatives, the following order of potency against the tested cancer lines was observed: 1,3-DPA/OH/NH2>1,3-DPAONH2>1,3-DPANH2>1,3-DPA/CF3/NH2."}, "A498": {"test_system": "A498", "assay_type": "cell-based", "settings": "Homo sapiens; A498, Renal cancer; drug for last 48 h of 72 h", "source_text": "as §1"}, "A549/ATCC": {"test_system": "A549/ATCC", "assay_type": "cell-based", "settings": "Homo sapiens, NSCLC, drug for last 48 h of 72 h", "source_text": "as §1"}, "CAKI-1": {"test_system": "CAKI-1", "assay_type": "cell-based", "settings": "Homo sapiens; CAKI-1, Renal cancer; drug for last 48 h of 72 h", "source_text": "as §1"}, "COLO 205": {"test_system": "COLO 205", "assay_type": "cell-based", "settings": "Homo sapiens; COLO 205, Colon cancer; drug for last 48 h of 72 h", "source_text": "as §1"}, "DU-145": {"test_system": "DU-145", "assay_type": "cell-based", "settings": "Homo sapiens; DU-145, Prostate cancer; drug for last 48 h of 72 h", "source_text": "as §1"}, "HCT-116": {"test_system": "HCT-116", "assay_type": "cell-based", "settings": "Homo sapiens; HCT-116, Colon cancer; drug for last 48 h of 72 h", "source_text": "as §1"}, "HCT-15": {"test_system": "HCT-15", "assay_type": "cell-based", "settings": "Homo sapiens; HCT-15, Colon cancer; drug for last 48 h of 72 h", "source_text": "as §1"}, "HOP-62": {"test_system": "HOP-62", "assay_type": "cell-based", "settings": "Homo sapiens; HOP-62, NSCLC; drug for last 48 h of 72 h", "source_text": "as §1"}, "IGROV1": {"test_system": "IGROV1", "assay_type": "cell-based", "settings": "Homo sapiens, IGROV-1; IGROV1, Ovarian cancer; drug for last 48 h of 72 h", "source_text": "as §1"}, "K-562": {"test_system": "K-562", "assay_type": "cell-based", "settings": "Homo sapiens, K562; K-562, Leukemia; drug for last 48 h of 72 h", "source_text": "as §1"}, "KM12": {"test_system": "KM12", "assay_type": "cell-based", "settings": "Homo sapiens, KM12, KM12, Colon cancer; drug for last 48 h of 72 h", "source_text": "as §1"}, "LOX IMVI": {"test_system": "LOX IMVI", "assay_type": "cell-based", "settings": "Homo sapiens, Melanoma, drug for last 48 h of 72 h", "source_text": "as §1"}, "M14": {"test_system": "M14", "assay_type": "cell-based", "settings": "Homo sapiens; M14, Melanoma; drug for last 48 h of 72 h", "source_text": "as §1"}, "MDA-MB-435": {"test_system": "MDA-MB-435", "assay_type": "cell-based", "settings": "Homo sapiens; MDA-MB-435, Breast cancer; drug for last 48 h of 72 h", "source_text": "as §1"}, "MDA-N": {"test_system": "MDA-N", "assay_type": "cell-based", "settings": "Homo sapiens, Breast cancer, drug for last 48 h of 72 h", "source_text": "as §1"}, "MOLT-4": {"test_system": "MOLT-4", "assay_type": "cell-based", "settings": "Homo sapiens; MOLT-4, Leukemia; drug for last 48 h of 72 h", "source_text": "as §1"}, "NCI-H23": {"test_system": "NCI-H23", "assay_type": "cell-based", "settings": "Homo sapiens; NCI-H23, NSCLC; drug for last 48 h of 72 h", "source_text": "as §1"}, "NCI-H522": {"test_system": "NCI-H522", "assay_type": "cell-based", "settings": "Homo sapiens; NCI-H522, NSCLC; drug for last 48 h of 72 h", "source_text": "as §1"}, "OVCAR-5": {"test_system": "OVCAR-5", "assay_type": "cell-based", "settings": "Homo sapiens; OVCAR-5, Ovarian cancer; drug for last 48 h of 72 h", "source_text": "as §1"}, "OVCAR-8": {"test_system": "OVCAR-8", "assay_type": "cell-based", "settings": "Homo sapiens; OVCAR-8, Ovarian cancer; drug for last 48 h of 72 h", "source_text": "as §1"}, "PC-3": {"test_system": "PC-3", "assay_type": "cell-based", "settings": "Homo sapiens; PC-3, Prostate cancer; drug for last 48 h of 72 h", "source_text": "as §1"}, "SK-MEL-28": {"test_system": "SK-MEL-28", "assay_type": "cell-based", "settings": "Homo sapiens; SK-MEL-28, Melanoma; drug for last 48 h of 72 h", "source_text": "as §1"}, "SK-MEL-5": {"test_system": "SK-MEL-5", "assay_type": "cell-based", "settings": "Homo sapiens; SK-MEL-5, Melanoma; drug for last 48 h of 72 h", "source_text": "as §1"}, "SN12C": {"test_system": "SN12C", "assay_type": "cell-based", "settings": "Homo sapiens, Renal cancer, drug for last 48 h of 72 h", "source_text": "as §1"}, "SW-620": {"test_system": "SW-620", "assay_type": "cell-based", "settings": "Homo sapiens; SW-620, Colon cancer; drug for last 48 h of 72 h", "source_text": "as §1"}, "BT-549": {"test_system": "BT-549", "assay_type": "cell-based, human", "settings": "Homo sapiens, BT-549, BT-549, Breast cancer; drug for last 48 h of 72 h", "source_text": "as §1"}, "NCI/ADR-RES": {"test_system": "NCI/ADR-RES", "assay_type": "cell-based, human", "settings": "Homo sapiens, Breast cancer, drug for last 48 h of 72 h", "source_text": "as §1"}, "SF-295": {"test_system": "SF-295", "assay_type": "cell-based, human", "settings": "Homo sapiens, SF-295, SF-295, CNS cancer; drug for last 48 h of 72 h", "source_text": "as §1"}}, "data": [{"smiles": "Nc1ccc(Oc2ccc(C3(c4ccc(Oc5ccc(N)cc5)cc4)C4CC5CC(C4)CC3C5)cc2)cc1", "note": "[2,2-DPAONH2, 2,2-bis(4-(4-aminophenoxy)phenyl)adamantane]", "values": [{"measurement": "IC50", "setting": "786-0", "result": 3.07, "unit": "µM"}, {"measurement": "IC50", "setting": "A498", "result": 2.91, "unit": "µM"}, {"measurement": "IC50", "setting": "A549/ATCC", "result": 3.38, "unit": "µM"}, {"measurement": "IC50", "setting": "CAKI-1", "result": 11.1, "unit": "µM"}, {"measurement": "IC50", "setting": "COLO 205", "result": 2.71, "unit": "µM"}, {"measurement": "IC50", "setting": "DU-145", "result": 3.31, "unit": "µM"}, {"measurement": "IC50", "setting": "HCT-116", "result": 2.71, "unit": "µM"}, {"measurement": "IC50", "setting": "HCT-15", "result": 4.94, "unit": "µM"}, {"measurement": "IC50", "setting": "HOP-62", "result": 11.8, "unit": "µM"}, {"measurement": "IC50", "setting": "IGROV1", "result": 5.88, "unit": "µM"}, {"measurement": "IC50", "setting": "K-562", "result": 3.89, "unit": "µM"}, {"measurement": "IC50", "setting": "KM12", "result": 3.55, "unit": "µM"}, {"measurement": "IC50", "setting": "LOX IMVI", "result": 2.75, "unit": "µM"}, {"measurement": "IC50", "setting": "M14", "result": 2.28, "unit": "µM"}, {"measurement": "IC50", "setting": "MDA-MB-435", "result": 6.04, "unit": "µM"}, {"measurement": "IC50", "setting": "MDA-N", "result": 2.74, "unit": "µM"}, {"measurement": "IC50", "setting": "MOLT-4", "result": 4.27, "unit": "µM"}, {"measurement": "IC50", "setting": "NCI-H23", "result": 5.15, "unit": "µM"}, {"measurement": "IC50", "setting": "NCI-H522", "result": 4.28, "unit": "µM"}, {"measurement": "IC50", "setting": "OVCAR-5", "result": 15.3, "unit": "µM"}, {"measurement": "IC50", "setting": "OVCAR-8", "result": 5.82, "unit": "µM"}, {"measurement": "IC50", "setting": "PC-3", "result": 6.75, "unit": "µM"}, {"measurement": "IC50", "setting": "SK-MEL-28", "result": 10.5, "unit": "µM"}, {"measurement": "IC50", "setting": "SK-MEL-5", "result": 8.38, "unit": "µM"}, {"measurement": "IC50", "setting": "SN12C", "result": 3.65, "unit": "µM"}, {"measurement": "IC50", "setting": "SW-620", "result": 5.03, "unit": "µM"}, {"measurement": "IC50", "setting": "BT-549", "result": 4.28, "unit": "µM"}, {"measurement": "IC50", "setting": "NCI/ADR-RES", "result": 15.8, "unit": "µM"}, {"measurement": "IC50", "setting": "SF-295", "result": 6.76, "unit": "µM"}]}]}
